Entries after “also recorded” stand apart in the source; their conditions may differ.
Columns and labels:
[1] = tested on: experimental autoimmune encephalomyelitis (EAE) induced with mouse spinal cord homogenate in CFA; assay: Experimental autoimmune encephalomyelitis (EAE) model of multiple sclerosis; format: in vivo, Biozzi mice; conditions: for protection against EAE (clinical disease score, weight loss): days -1 to 10, Biozzi mice; for overall effect on EAE disease: general statement, no dose given
Protocol: Groups of 10 Biozzi mice aged between 5 and 8 weeks of age were challenged in the flank with mouse spinal cord homogenate (SCH) in complete Freund's adjuvant (CFA) in order to induce EAE. Treatments were given according to the schedule below. Treatment (n=8 per group) Group A—vehicle control Group B—RU350 30 mg/kg days −1 to 10 once daily by oral gavage Group C—RU350 10 mg/kg days −1 to 10 twice daily by oral gavage Group D—Positive control drug A 20 mg/ml solution of SCH in PBS was prepared and mixed in an equal volume with CFA. The mixture was sonicated in a Branson 1200 sonicator for 15 minutes and then homogenised for three minutes. An amount of 1 mg in 100 μl was administered per mouse by subcutaneous injection at the base of tail. In addition, mice were given 200 ng pertussis toxin in 0.5 ml by intraperitoneal (ip) injection on day 0 and again 48 hours later. Mice were treated according to the outline above from day −1 to day 10. The compound of formula (Ia) (i.e. RUS350) was prepared daily by dissolving 15 mg of the compound (stored at −20° C.) in sterile distilled water to give 6 mg/ml solution. A dose of 100 μl was given by oral gavage daily to the group B mice (equivalent to 30 mg/kg per 20 g mouse). For group C mice, 1 ml of the […] stock was further diluted 1:3 in sterile distilled water, and a dose of 100 μl was given orally twice daily (equivalent to 2×10 mg/kg per 20 g mouse). Distilled water served as the vehicle control for the mice in group A. Group D mice were given a dose of 5 mg/kg dexamethasone (100 μg in 100 μl per 20 g mouse) on days 3-7 and days 10-12. Moribund animals were euthanised according to Home Office regulations and all remaining animals were euthanized at day 28 post-induction. At termination, brains and spinal cords were taken from all animals and fixed for histopathology examination. Mice were weighed prior to EAE induction (Day 0) and then daily from day 5 until termination. Clinical disease was monitored from day 5 and scored according the following system: [table]

[2] = tested on: DAT and VMAT2 in brain; conditions: conscious rat brain; cited from earlier work

Q: With `COc1cc2c(cc1OC)[C@H]1C[C@H](O)[C@@H](CC(C)C)CN1CC2` (single isomer, unassigned) [compound of formula (Ia)] as the compound, how does the “protection against EAE (clinical disease score, weight loss)” value ([1]; 10 mg/kg twice daily by oral gavage) read?
A: very high level of protection

Q: What about the “protection against EAE (clinical disease score, weight loss)” value ([1]; 30 mg/kg once daily by oral gavage) of the same compound?
A: moderate degree of protection

Q: And the “overall effect on EAE disease” value [1]?
A: profound effect on the disease; also recorded: levels of protection similar to that provided by treatment with steroids

Q: What about the “overall effect on EAE disease” value ([1]; listed as formula (Ia)) of the same compound?
A: inhibits the development of autoimmune encephalomyelitis

Q: For `COc1cc2c(cc1O[11CH3])CCN1C[C@H](CC(C)C)[C@@H](O)C[C@@H]21` [(−)-α-[^11C]dihydrotetrabenazine], which “distribution of radio-labelled isomer in the brain” value [2] is on record?
A: almost uniformly distributed in the brain

Q: For `COc1cc2c(cc1O[11CH3])CCN1C[C@@H](CC(C)C)[C@H](O)C[C@H]21` (single isomer, unassigned) [(+)-α-[^11C]dihydrotetrabenazine], which “distribution of radio-labelled isomer in the brain” value [2] is on record?
A: accumulated in regions of the brain associated with higher concentrations of the neuronal membrane dopamine transporter (DAT) and the vesicular monoamine transporter (VMAT2)

Q: Which “inhibition of severe EAE associated with weight loss” value ([1]; positive control, 5 mg/kg on days 3-7 and days 10-12, Biozzi mice) does the source give for `C[C@@H]1C[C@H]2[C@@H]3CCC4=CC(=O)C=C[C@]4(C)[C@@]3(F)[C@@H](O)C[C@]2(C)[C@@]1(O)C(=O)CO` [steroid, dexamethasone, reference compound] here?
A: markedly inhibited this effect

— US20110039877A1, “USE OF 3, 11B-CIS-DIHYDROTETRABENAZINE IN THE TREATMENT OF MULTIPLE SCLEROSIS AND AUTOIMMUNE MYELITIS” (Biovail Laboratories International (Barbados) S.R.L., priority 2007, published 2011)
